Measurements from patent US6890960B1, “Vetiver oil extracts as termite repellent and toxicant” (Board of Supervisors of Louisiana State University and …, priority 1999, dated 2005).
Where two headings read alike, the source gives them in different places.

Legend:
[1] = system: Formosan subterranean termites; assay type: in vivo; settings: for Worker Mortality, Mean ± S.D.: workers only
Method: The amount of nootkatone isolated from the vetiver oil was insufficient to test for termite repellant activity. Nootkatone was therefore purchased from a commercial source (Lancaster Synthesis Inc., Windham, N.H.). A three-chambered plastic container was used as described above in Example 2. A small hole was melted at the bottom of each of the two inner walls to connect the chambers. Four replicate chambers were used for each concentration of nootkatone (μg/g of sand) tested: 0, 10 μg/g, 20 μg/g, 100 μg/g, and 200 μg/g. For each concentration, the nootkatone in 25 ml ethyl alcohol was mixed with 500 g #4 blasting sand as described in Example 2. The sand was dried overnight. The next day, 115 g of treated sand was added to the middle chamber; 115 g untreated sand was added to one end chamber, and a weighted filter paper (Whatman #1, 55 mm) was placed in the opposite end chamber. The filter paper had been dried at 70° C. for 3 hr and cooled to room temperature before weighing. Then 10 ml ddH2O was added to each chamber with sand and 200 μl ddH2O was added to the filter paper. Four containers with no nootkatone served as negative controls. Fifty worker and 5 soldier termites from a single colony collected in Algiers, La., were placed in each untreated sand chamber. The chambers were covered and kept in a dark incubator at 29° C.
On the 16th day, the number of live termites was counted, and the bottom of each container was scanned to determine tunneling length as described in Example 2. The filter paper from each container was removed, cleaned, dried at 70° C. for 3 hr, cooled, and finally weighed.
Between-treatment differences in filter paper weight, mortality, and tunnel length in the treated compartments were compared by analysis of variance (ANOVA) and Tukey's Studentized Range Test. The results are presented in Tables 4, 5, and 6 and in FIGS. 1-3.

[2] = system: Formosan subterranean termites; experiment: Feeding and tunneling experiment with treated balsa wood; assay type: in vivo, Coptotermes formosanus; settings: data not shown
Method: Balsa wood (5 cm×5 cm×0.5 mm) was soaked for 1 hr in a 1% ethanol solution of either vetiver oil, nootkatone, TIM-BOR®, or an ethanol control. The treated wood was then dried and allowed to air until used in the experiments. The experiments were run at one, three, and six months after the wood was treated. The feeding and tunneling experimental procedure was as described in Example 2, except that in place of the filter paper as food for the termites, treated balsa wood was placed in each end compartment; and untreated sand was placed in all three chambers. Into the center chamber was added 225 workers and 25 soldiers collected from two large Formosan termite colonies in New Orleans, La. Three replicate containers for each of the two colonies and for each treatment of balsa wood were monitored for 8 days. Tunneling activity was periodically checked on days 3, 5, and 7 by scanning the bottoms of the containers. On day 8, the balsa wood was removed and weighed to determine wood consumption.

humans = settings: use in perfumery and flavor industries; cited from earlier work
termites = experiment: Quick petri dish termite distribution assay of α-cedrene (treated vs untreated sand); assay type: in vivo; settings: 100 μg/dish
Method: The termite bio-activity of α-cedrene, a component of vetiver oil, was tested using a commercially available product (Fluka, a division of Sigma-Aldrich, Inc., St. Louis, Mo.). A new method for screening compounds for termite bio-activity was developed that was faster than the bioassay described in Example 2. Five cm diameter petri dishes with lids were used. Two ml of hot agar solution (1.5 g/100 ml ddH2O) was spread evenly in the bottom of each dish and allowed to cool. The agar solution provided moisture for the termites and held the sand in place. The sand was autoclaved for 30 min, the alcohol with sample added, and dried in an oven. For three dishes, one half of the bottom of each dish was covered with 1.5 g treated sand mixed with a total of 100 μg α-cedrene per dish, dissolved in 250 μl ethanol, and the other half with 1.5 g untreated sand (only ethanol). The sand completely covered the agar, but was not thick enough to conceal tunneling termites. Three dishes were prepared as a control with only untreated sand in each side. Finally, ten termites were added to each dish, and the dishes were covered to eliminate light.
The termite distribution in each dish, measured by counting the number of termites on the untreated half of the dish, was examined each hour for up to 8 hr. […] Therefore the extract was considered a repellent. The extract was considered toxic if some or all termites behaved sluggishly, were moribund or dead.

## C=C(C)C1CCC2=CC(=O)CC(C)C2(C)C1 (stereo not shown) [nootkatone, 4,4a5,6,7,8-hexahydro-6-isopropenyl-4,4a-dimethyl-2(3H)-naphthalenone]
[1]; 10 μg/gm sand, 16th day
  Filter Paper Consumption, Mean ± S.D.: 0.0019 ± 0.002641 gm
  Tunnel Length in Treated Compartment, Mean ± S.D.: 7.225 ± 5.155 cm
  Worker Mortality, Mean ± S.D.: 88.50 ± 10.12
[1]; 20 μg/gm sand, 16th day
  Filter Paper Consumption, Mean ± S.D.: 0.000525 ± 0.000709 gm
  Tunnel Length in Treated Compartment, Mean ± S.D.: 0.000 ± 0.000 cm
  Worker Mortality, Mean ± S.D.: 87.00 ± 18.22
[1]; 100 μg/gm sand, 16th day
  Filter Paper Consumption, Mean ± S.D.: 0.000025 ± 0.000050 gm
  Tunnel Length in Treated Compartment, Mean ± S.D.: 0.000 ± 0.000 cm
  Worker Mortality, Mean ± S.D.: 90.50 ± 11.70
[1]; 200 μg/gm sand, 16th day
  Filter Paper Consumption, Mean ± S.D.: 0.000275 ± 0.00055 gm
  Tunnel Length in Treated Compartment, Mean ± S.D.: 0.000 ± 0.000 cm
  Worker Mortality, Mean ± S.D.: 95.00 ± 8.718
[1]; all chambers where the nootkatone concentration was ≦100 μg/g sand
  worker mortality: Ninety percent mortality or greater
[1]; concentrations higher than 10 μg/g, 16th day
  tunneling in the middle chamber: no tunneling was visible
[1]; concentrations higher than 20 μg/g
  consumption of filter paper: Almost no consumption of filter paper
[1]; in sand
  lowest concentration effective as repellent and toxicant (decreased tunneling and feeding, increased mortality): 10 µg/g
[1]; lowest concentration (10 μg/g)
  feeding as measured by loss of filter paper weight vs control: significantly decreased feeding
[1]; lowest concentration of 10 μg/g, 16th day
  tunneling activity in middle chamber: substantially decreased the tunneling activity
[2]; 1 and 3 month interval after wood treatment
  ranking of effect on wood consumption: greatest effect on decreasing wood consumption
[2]; balsa wood soaked in 1% ethanol solution, 1, 3 and 6 months after treatment, day 8
  wood consumption vs control group: consumed less wood than the control group
[2]; six months after the initial treatment of the wood sample
  effectiveness as a termite repellent: retained their effectiveness
[2]; six months after wood treatment
  reduction of wood consumption compared with borate solution: as effective as the borate solution
[2]; treated balsa wood, even after three months
  tunneling activity of the termites: substantially reduced with vetiver oil and especially with nootkatone
humans
  toxicity to humans: essentially non-toxic to humans

## CC1=CC[C@@]23C[C@@H]1C(C)(C)[C@@H]2CC[C@H]3C [α-Cedrene, α-cedrene]
termites
  termite deaths: None of the termites died
termites; 2-3 h time frame
  repellency for termites: weak repellent
termites; 1 hr
  Percent of termites on the untreated side (sum of the three replicates): 50%
termites; 2 hr
  Percent of termites on the untreated side (sum of the three replicates): 93.3%
termites; 3 hr
  Percent of termites on the untreated side (sum of the three replicates): 86.7%
termites; 4 hr
  Percent of termites on the untreated side (sum of the three replicates): 63.3%
termites; 24 hr
  Percent of termites on the untreated side (sum of the three replicates): 63.3%
